Source: paper PMC11374718, “Unlocking opioid neuropeptide dynamics with genetically encoded biosensors” (Nature Neuroscience, 2024)

Key:
κLight1.3a [1] = experiment: in vivo fiber photometry of κLight1.3a in NAcSh, agonist/antagonist drug injection; parameters: species or system mouse; conditions: κOR-Cre mice NAcSh; aticaprant 3 mg per kg + U50,488 10 mg per kg i.p.; 0–50 min; n = 6
Experimental: To detect dynorphin signaling at κOR-expressing neurons, we injected κOR-Cre mice with AAV5-CAG-DIO-κLight1.3a and implanted optical fibers in the NAcSh. A subset of mice was also injected with the red-shifted opsin ChRimson (AAV5-DIO-EF1a-ChRimson-tdTomato) in the BLA (Fig. 5a–c and Extended Data Fig. 5a); ChRimson-lacking mice served as a negative control to determine if optical stimulation produced artifactual dynamics in κLight1.3a fluorescence. We first examined the response of κLight1.3a to the agonist U50,488 in these mice (Fig. 5d).
Mice were pretreated with either vehicle (17:1:1:1 ratio of saline:dimethylsulfoxide:corn oil:ethanol) or aticaprant (Eli Lilly) at 3 mg per kg body weight […] i.p. for 30 min. […]
Custom MATLAB scripts were developed for analyzing fiber photometry data in the context of mouse behavior. […] After baseline correction, the photometry trace was z-scored relative to the mean and standard deviation of the session. The post-processed fiber photometry signal was analyzed in the context of animal behavior during Pavlovian conditioning and operant task performance. […] Peak, mean and minimum fluorescence was determined during predetermined time windows for the injection period (0–5 min), reward period (5–20 s), release period (0–20 s) or artifact period (0–20 s) subtracted from peak, mean or minimum fluorescence values in a baseline window (−5 to 0 s). […]

κLight1.3a [2] = experiment: in vivo BLA terminal ChRimson stimulation-evoked κLight1.3a activity in NAcSh after drug pretreatment; parameters: species or system mouse; conditions: aticaprant 3 mg per kg i.p. pretreatment; normalized to vehicle; 0–20 s; n = 4

## Cc1cc(C)cc([C@@H]2CCCN2Cc2ccc(Oc3ccc(C(N)=O)cc3F)cc2)c1 [aticaprant]
κLight1.3a [1]
  Normalized peak fluorescence of κLight1.3a during injection period: 0.29 ± 0.07
κLight1.3a [2]
  Normalized peak fluorescence of κLight1.3a, ChRimson stimulation-evoked trials: 0.63 ± 0.14
